The text below walks through data of patent US11447502B2, “Antibacterial agents: dual-targeted RNA polymerase inhibitors” (priority 2018, dated 2022).

Values after ≈ are worked out from the molar mass of the structure shown.

The subject of one experiment is M. tuberculosis H37Rv. The experiment can be described thus: Microplate Alamar Blue MIC assay, M. tuberculosis H37Rv. Format: cell-based. Particulars: Mycobacterium tuberculosis, read-out: antibacterial activity M. tuberculosis H37Rv MIC.
The next experiment deals with M. avium ATCC 25291. The experiment can be described thus: Microplate Alamar Blue MIC assay, M. avium. Format: cell-based, Mycobacterium avium. On the technique in general: Resazurin is reduced to fluorescent resorufin, in cell work by metabolically active cells.

Broadly, the MIC is the lowest concentration found to suppress growth. Regarding `CO[C@H]1/C=C/O[C@@]2(C)Oc3c(C)c(O)c4c(O)c(c(/C=N/N5CCN(c6ccc(F)cc6NC(=O)C(Cc6ccccc6)NC(=O)c6ccccc6F)CC5)c(O)c4c3C2=O)NC(=O)/C(C)=C\C=C\[C@H](C)[C@H](O)[C@@H](C)[C@@H](O)[C@@H](C)[C@H](OC(C)=O)[C@@H]1C` (some centres unmarked) [IX-398, Rifamycin SV—(CHN)—IX-214 Conjugate], in the experiment with M. tuberculosis H37Rv, the MIC came to 0.39 mg/L (≈ 0.328 µM). Moreover, in the experiment with M. avium ATCC 25291, the “antibacterial activity M. avium ATCC 25291” value amounted to 0.098. In the same order, the values of `CO[C@H]1/C=C/O[C@@]2(C)Oc3c(C)c(O)c4c(O)c(c(/C=N/N5CCN(CCN6CCN(c7ccc(F)cc7NC(=O)C(Cc7ccccc7)NC(=O)c7ccccc7F)CC6)CC5)c(O)c4c3C2=O)NC(=O)/C(C)=C\C=C\[C@H](C)[C@H](O)[C@@H](C)[C@@H](O)[C@@H](C)[C@H](OC(C)=O)[C@@H]1C` (some centres unmarked) [IX-403, Rifamycin SV—(CHN)—IX-402 Conjugate] are 3.13 mg/L (≈ 2.41 µM) and 3.13. For the compound `[2H]C([2H])(c1ccccc1)C(NC(=O)c1ccccc1F)C(=O)Nc1cc(F)ccc1N1CCN(/N=C/c2c3c(O)c4c(O)c(C)c5c(c4c2O)C(=O)[C@@](C)(O/C=C/[C@H](OC)[C@@H](C)[C@@H](OC(C)=O)[C@H](C)[C@H](O)[C@H](C)[C@@H](O)[C@@H](C)/C=C/C=C(/C)C(=O)N3)O5)CC1` (some centres unmarked) [IX-404a, Rifamycin SV—(CHN)—IX-370a Conjugate], the MIC in the experiment with M. tuberculosis H37Rv amounted to 0.049 mg/L (≈ 0.0412 µM). In addition, the “antibacterial activity M. avium ATCC 25291” value in the experiment on M. avium ATCC 25291 was determined as 0.048. On the same counts, the results for `[2H]C([2H])(c1ccccc1)C(NC(=O)c1ccccc1F)C(=O)Nc1cc(F)ccc1N1CCN(C(=O)COc2cc3c(O)c4c(O)c(C)c5c(c24)C(=O)[C@@](C)(O/C=C/[C@H](OC)[C@@H](C)[C@@H](OC(C)=O)[C@H](C)[C@H](O)[C@H](C)[C@@H](O)[C@@H](C)/C=C/C=C(/C)C(=O)N3)O5)CC1` (some centres unmarked) [IX-408a, Rifamycin B—IX-370a Conjugate] are 0.2 mg/L (≈ 0.166 µM) and 0.78.

Regarding `[2H]C([2H])(c1ccccc1)C(NC(=O)c1ccccc1F)C(=O)Nc1cc(F)ccc1N1CCN(/N=C/C2=C3NC(=O)/C(C)=C\C=C\[C@H](C)[C@H](O)[C@@H](C)[C@@H](O)[C@@H](C)[C@H](OC(C)=O)[C@H](C)[C@@H](OC)/C=C/O[C@@]4(C)Oc5c(C)c(O)c(c(c5C4=O)C2=O)C3=O)CC1` (some centres unmarked) [IX-476a, Rifamycin S—(CHN)—IX-370a Conjugate], in the experiment on M. tuberculosis H37Rv, the minimal inhibitory concentration (MIC) is 0.2 mg/L (≈ 0.168 µM). Take `CO[C@H]1/C=C/O[C@@]2(C)Oc3c(C)c(O)c4c(O)c(c(/C=N/N5CCN(C)CC5)c(O)c4c3C2=O)NC(=O)/C(C)=C\C=C\[C@H](C)[C@H](O)[C@@H](C)[C@@H](O)[C@@H](C)[C@H](OC(C)=O)[C@@H]1C` [rifampin, reference compound]: in the experiment on M. tuberculosis H37Rv, the minimum inhibitory concentration (MIC) came to 0.049 mg/L (≈ 0.0595 µM). In the experiment with M. avium ATCC 25291, the “antibacterial activity M. avium ATCC 25291” value stood at 0.024.
